Earlier results, collected in patent US8431724B2, “Iejimalid analoga and uses thereof” (Studiengesellschaft Kohle mbH, priority 2007, dated 2013).

Experiments:
P388 leukemia = settings: Kobayashi's report
[1] = tested on: panel of 60 standard human cancer cell lines; settings: NCI dataset 2005

| Compound | in vivo activity against P388 leukemia (P388 leukemia) | GI50 [1] | TGI [1] |
| --- | --- | --- | --- |
| CO[C@@H]1/C=C(C)/C=C/[C@@H](C)/C=C/C(=O)O[C@H](/C(C)=C/C=C(\C)CNC(=O)[C@H](COS(=O)(=O)[O-])NC=O)[C@@H](C)/C=C/C=C/[C@@H](OC)CC/C=C(C)\C=C\C1.[Na+] [compound 3, Iejimalide C] | potent in vivo activity | – | – |
| CO[C@@H]1/C=C(C)/C=C/[C@@H](C)/C=C(\C)C(=O)O[C@H](/C(C)=C/C=C(\C)CNC(=O)[C@H](COS(=O)(=O)[O-])NC=O)[C@@H](C)/C=C/C=C/[C@@H](OC)CC/C=C(C)\C=C\C1.[Na+] [compound 4, Iejimalide D] | potent in vivo activity | – | – |
| Iejimalide A | – | low nanomolar range | low nanomolar range |
